Broadly, the IC50 is the concentration that gives 50% inhibition. A word on the Ki: it is a measure of affinity in units of concentration, obtained from inhibition or displacement.

These results are taken from ChEMBL document CHEMBL1909046, “DrugMatrix in vitro pharmacology data”.

One test deals with T1, B2 bradykinin receptor (Homo sapiens, UniProt P30411).
T1 sequence (P30411 whole entry): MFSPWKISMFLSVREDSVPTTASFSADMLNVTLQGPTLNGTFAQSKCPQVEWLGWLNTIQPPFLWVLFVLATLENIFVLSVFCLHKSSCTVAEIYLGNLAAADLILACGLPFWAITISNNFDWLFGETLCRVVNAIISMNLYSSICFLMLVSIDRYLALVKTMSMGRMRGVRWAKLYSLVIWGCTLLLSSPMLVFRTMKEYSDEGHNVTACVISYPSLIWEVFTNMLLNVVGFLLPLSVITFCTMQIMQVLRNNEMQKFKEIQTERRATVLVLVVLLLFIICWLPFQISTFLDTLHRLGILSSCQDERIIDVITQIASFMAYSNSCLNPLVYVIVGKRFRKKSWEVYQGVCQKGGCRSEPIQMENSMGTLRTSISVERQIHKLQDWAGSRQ
Type of test: cell membranes, Membrane. Conditions: chem-1.

Test [1] can be described thus: DRUGMATRIX: Sigma2 radioligand binding (ligand: [3H] Ifenprodil). Format: cell membranes, Rattus norvegicus, Wistar, Brain, Membrane. Conditions: Not Active = under 50% inhibition at 10 µM.
Another test addresses Carbonic anhydrase 2 (Homo sapiens, UniProt P00918). Put plainly: DRUGMATRIX: Carbonic Anhydrase II enzyme inhibition (substrate: 4-Nitrophenyl acetate (4-NPA)). Format: tissue-based, Erythrocyte. Conditions: erythrocyte; Not Active = under 50% inhibition at 10 µM.
Test [2] addresses Prostaglandin G/H synthase 1 (Homo sapiens, UniProt P23219). Description: biochemical. Format: tissue-based, Platelet. Conditions: platelet.
Test [3] addresses T2, 3-hydroxy-3-methylglutaryl-coenzyme A reductase (Homo sapiens, UniProt P04035).
T2 sequence (P04035 whole entry): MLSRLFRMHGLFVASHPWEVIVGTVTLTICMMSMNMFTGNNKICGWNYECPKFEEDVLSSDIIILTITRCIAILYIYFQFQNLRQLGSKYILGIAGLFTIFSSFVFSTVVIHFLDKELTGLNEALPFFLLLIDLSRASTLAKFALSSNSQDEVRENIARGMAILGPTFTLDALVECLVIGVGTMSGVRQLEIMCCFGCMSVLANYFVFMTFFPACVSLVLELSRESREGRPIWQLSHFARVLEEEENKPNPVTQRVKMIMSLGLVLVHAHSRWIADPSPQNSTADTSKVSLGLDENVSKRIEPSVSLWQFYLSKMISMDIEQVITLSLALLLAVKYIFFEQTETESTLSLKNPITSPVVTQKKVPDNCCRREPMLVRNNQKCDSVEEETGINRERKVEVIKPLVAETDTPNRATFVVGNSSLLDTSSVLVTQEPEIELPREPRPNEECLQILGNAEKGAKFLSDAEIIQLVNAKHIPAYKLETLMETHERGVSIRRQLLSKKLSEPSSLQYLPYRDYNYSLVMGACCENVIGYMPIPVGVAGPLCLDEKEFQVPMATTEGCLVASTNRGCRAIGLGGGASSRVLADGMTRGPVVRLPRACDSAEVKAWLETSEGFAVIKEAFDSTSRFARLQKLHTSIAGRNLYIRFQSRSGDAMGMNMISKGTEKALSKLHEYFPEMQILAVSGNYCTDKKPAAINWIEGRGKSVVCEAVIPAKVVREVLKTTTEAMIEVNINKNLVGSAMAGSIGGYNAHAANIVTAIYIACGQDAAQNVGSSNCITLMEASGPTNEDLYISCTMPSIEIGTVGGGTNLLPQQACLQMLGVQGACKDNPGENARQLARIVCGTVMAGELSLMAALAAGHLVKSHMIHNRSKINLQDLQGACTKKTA
On the set-up: species or system Escherichia coli.

For another test, the target named is Melanocortin receptor 4 (Homo sapiens, UniProt P32245). Format: cell membranes, Membrane. The settings on record: hek293. Further: in other assays of this panel Not Active means under 50% inhibition at 10 µM.
Sequence of Melanocortin receptor 4 (P32245 whole entry): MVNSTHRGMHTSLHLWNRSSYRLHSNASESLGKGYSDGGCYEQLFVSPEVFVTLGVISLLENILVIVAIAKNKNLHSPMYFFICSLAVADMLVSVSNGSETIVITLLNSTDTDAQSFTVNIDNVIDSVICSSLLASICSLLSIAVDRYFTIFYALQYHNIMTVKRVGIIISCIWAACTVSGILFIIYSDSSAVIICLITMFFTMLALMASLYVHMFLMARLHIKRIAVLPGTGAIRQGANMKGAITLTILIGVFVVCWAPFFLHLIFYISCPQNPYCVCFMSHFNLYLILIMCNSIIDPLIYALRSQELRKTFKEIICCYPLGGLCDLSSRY
Test [4] concerns the target T3, Muscarinic acetylcholine receptor M4 (Homo sapiens, UniProt P08173). Further: in other assays of this panel Not Active means under 50% inhibition at 10 µM.
T3 sequence (P08173 whole entry): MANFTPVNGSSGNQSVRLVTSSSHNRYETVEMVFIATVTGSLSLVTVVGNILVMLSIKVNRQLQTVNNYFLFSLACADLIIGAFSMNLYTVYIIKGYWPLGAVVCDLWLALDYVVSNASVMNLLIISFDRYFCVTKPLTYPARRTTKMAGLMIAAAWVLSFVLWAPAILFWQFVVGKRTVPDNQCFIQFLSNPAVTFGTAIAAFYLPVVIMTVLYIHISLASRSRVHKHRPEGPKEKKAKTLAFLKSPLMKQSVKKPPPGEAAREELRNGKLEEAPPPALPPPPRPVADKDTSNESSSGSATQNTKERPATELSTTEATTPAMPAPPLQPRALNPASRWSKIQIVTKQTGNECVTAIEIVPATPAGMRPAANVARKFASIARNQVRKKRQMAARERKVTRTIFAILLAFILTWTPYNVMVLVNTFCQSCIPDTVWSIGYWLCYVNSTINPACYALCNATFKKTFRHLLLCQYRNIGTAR
Type of test: cell membranes, CHO-K1, Membrane.

Test [5] addresses Kappa-type opioid receptor (Homo sapiens, UniProt P41145). Put plainly: DRUGMATRIX: Opiate kappa (OP2, KOP) radioligand binding (ligand: [3H] Diprenorphine). Format: cell membranes, HEK293, Membrane. The settings on record: hek293; Not Active = under 50% inhibition at 10 µM.
A short description of test [6]: DRUGMATRIX: Potassium Channel [KATP] radioligand binding (ligand: [3H] Glyburide). Type of test: cell membranes, Membrane. Conditions: hit-t15; Not Active = under 50% inhibition at 10 µM.
A further test addresses T4, Caspase-1 (Homo sapiens, UniProt P29466).
T4 sequence (P29466 whole entry): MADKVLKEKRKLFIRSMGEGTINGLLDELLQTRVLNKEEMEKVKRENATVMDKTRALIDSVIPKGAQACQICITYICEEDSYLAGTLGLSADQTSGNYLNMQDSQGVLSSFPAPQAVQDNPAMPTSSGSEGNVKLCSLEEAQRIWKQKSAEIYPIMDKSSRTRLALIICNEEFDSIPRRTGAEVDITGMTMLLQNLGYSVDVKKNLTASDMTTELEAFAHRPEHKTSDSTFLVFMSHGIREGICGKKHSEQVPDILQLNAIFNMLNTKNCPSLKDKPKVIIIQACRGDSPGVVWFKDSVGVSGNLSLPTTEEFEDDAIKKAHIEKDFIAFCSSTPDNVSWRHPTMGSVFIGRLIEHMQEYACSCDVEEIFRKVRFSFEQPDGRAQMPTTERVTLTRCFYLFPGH
Details: species or system Escherichia coli.

The target in test [7] is Matrix metalloproteinase-9 (Homo sapiens, UniProt P14780). Format: cell-based.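 Further: inhibition of isolated MMP-9 enzyme activity toward a synthetic peptide substrate, from the DrugMatrix protease screening panel; in other assays of this panel Not Active means under 50% inhibition at 10 µM.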
Sequence of Matrix metalloproteinase-9 (P14780 whole entry): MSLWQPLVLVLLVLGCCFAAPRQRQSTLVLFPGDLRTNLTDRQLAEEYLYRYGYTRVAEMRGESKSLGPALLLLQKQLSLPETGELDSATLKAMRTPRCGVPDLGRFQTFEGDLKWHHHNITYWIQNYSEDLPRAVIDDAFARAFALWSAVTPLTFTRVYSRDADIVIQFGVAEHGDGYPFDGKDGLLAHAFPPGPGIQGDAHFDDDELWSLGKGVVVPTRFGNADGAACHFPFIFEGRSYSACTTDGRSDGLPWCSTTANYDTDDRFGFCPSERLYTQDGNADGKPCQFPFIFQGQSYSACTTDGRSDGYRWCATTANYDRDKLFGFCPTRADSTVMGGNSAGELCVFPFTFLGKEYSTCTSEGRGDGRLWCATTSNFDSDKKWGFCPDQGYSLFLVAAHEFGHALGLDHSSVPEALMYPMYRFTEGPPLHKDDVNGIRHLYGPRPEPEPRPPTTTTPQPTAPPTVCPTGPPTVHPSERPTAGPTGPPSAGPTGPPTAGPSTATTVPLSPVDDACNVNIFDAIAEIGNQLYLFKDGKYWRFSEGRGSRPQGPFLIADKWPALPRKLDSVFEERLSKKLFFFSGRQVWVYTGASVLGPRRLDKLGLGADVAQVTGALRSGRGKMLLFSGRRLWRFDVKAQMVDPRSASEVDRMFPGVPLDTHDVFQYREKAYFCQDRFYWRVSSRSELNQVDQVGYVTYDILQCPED
Test [8] concerns the target Mitogen-activated protein kinase 1 (Homo sapiens, UniProt P28482). Put plainly: DRUGMATRIX: Protein Serine/Threonine Kinase, ERK2 enzyme inhibition (substrate: Myelin Basic Protein). On the set-up: species or system Escherichia coli. Conditions: Not Active = under 50% inhibition at 10 µM.
For the next test, the target named is Acetylcholinesterase (Homo sapiens, UniProt P22303). Description: DRUGMATRIX: Acetylcholinesterase enzyme inhibition (substrate: acetylthiocholine). Type of test: cell-based, HEK293. Conditions: hek293; Not Active = under 50% inhibition at 10 µM.
Sequence of Acetylcholinesterase (P22303 whole entry): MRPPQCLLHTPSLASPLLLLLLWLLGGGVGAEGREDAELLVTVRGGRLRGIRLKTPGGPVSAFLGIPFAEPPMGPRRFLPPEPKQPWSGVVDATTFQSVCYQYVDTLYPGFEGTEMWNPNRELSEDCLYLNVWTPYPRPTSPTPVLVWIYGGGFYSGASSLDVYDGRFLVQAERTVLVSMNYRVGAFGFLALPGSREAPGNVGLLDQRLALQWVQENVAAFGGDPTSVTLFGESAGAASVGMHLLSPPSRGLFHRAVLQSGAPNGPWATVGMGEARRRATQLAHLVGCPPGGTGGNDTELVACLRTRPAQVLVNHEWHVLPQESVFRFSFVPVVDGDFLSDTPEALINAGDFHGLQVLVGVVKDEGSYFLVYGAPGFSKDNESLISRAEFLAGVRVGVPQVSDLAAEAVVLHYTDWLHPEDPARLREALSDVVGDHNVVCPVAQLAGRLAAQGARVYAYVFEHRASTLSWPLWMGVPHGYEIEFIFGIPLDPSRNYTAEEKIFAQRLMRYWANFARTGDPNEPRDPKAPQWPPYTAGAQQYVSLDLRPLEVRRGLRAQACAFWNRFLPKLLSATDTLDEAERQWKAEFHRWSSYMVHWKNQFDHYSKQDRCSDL

Sequence of Mitogen-activated protein kinase 1 (P28482 whole entry): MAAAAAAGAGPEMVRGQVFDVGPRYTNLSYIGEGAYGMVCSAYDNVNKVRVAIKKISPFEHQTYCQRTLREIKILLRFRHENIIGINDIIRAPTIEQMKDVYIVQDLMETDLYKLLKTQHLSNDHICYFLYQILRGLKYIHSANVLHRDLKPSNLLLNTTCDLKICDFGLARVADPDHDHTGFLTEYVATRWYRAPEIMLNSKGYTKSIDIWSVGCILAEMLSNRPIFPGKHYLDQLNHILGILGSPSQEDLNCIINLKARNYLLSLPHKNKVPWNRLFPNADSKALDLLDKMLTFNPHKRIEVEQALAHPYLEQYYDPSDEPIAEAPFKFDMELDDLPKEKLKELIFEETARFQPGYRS
Sequence of Kappa-type opioid receptor (P41145 whole entry): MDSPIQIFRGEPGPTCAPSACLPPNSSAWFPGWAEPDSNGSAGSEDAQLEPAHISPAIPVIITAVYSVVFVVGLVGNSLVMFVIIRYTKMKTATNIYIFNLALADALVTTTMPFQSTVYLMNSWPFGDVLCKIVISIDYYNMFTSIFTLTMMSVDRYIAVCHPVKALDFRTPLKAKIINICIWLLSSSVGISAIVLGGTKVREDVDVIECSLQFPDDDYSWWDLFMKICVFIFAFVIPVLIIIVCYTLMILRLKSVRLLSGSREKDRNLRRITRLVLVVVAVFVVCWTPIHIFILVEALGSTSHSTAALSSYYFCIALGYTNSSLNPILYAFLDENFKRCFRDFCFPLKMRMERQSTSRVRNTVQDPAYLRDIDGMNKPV
Sequence of Prostaglandin G/H synthase 1 (P23219 whole entry): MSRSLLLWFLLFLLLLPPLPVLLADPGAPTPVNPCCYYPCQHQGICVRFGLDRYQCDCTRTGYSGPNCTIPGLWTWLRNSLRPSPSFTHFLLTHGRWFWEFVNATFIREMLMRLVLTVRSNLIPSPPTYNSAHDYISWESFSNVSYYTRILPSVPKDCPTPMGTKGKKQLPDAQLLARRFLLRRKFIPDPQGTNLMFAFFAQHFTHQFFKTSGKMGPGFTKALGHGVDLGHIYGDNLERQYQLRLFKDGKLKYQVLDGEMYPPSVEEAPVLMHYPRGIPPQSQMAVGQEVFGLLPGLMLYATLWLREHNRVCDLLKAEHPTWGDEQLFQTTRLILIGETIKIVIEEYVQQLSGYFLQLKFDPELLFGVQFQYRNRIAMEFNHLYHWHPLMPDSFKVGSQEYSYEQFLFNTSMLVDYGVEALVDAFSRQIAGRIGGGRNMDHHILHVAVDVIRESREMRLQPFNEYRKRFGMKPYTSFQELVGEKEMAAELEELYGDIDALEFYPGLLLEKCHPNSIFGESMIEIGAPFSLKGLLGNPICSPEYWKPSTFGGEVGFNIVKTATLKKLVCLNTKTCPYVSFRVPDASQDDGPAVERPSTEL

`O=C1c2c(O)ccc(O)c2C(=O)c2c(NCCNCCO)ccc(NCCNCCO)c21` [MITOXANTRONE]: the IC50 entry (against B2 bradykinin receptor; in [1]; against Carbonic anhydrase 2; in test [2]; in test [3]; against Melanocortin receptor 4) was “Not Active” throughout. Further, the IC50 is 644 nM in test [4] (read-out: IC50); “Not Active” in test [5]; “Not Active” in [6]; “Not Active” against Caspase-1; “Not Active” in test [7]; “Not Active” in test [8]. Moreover, the IC50 result at Acetylcholinesterase was “Not Active”. Also, the Ki result in test [1] was “Not Active”; in [4] (read-out: Ki) it was 89.8 nM; in [6], “Not Active”.

With `COc1c(C)c2c(c(O)c1C/C=C(\C)CCC(=O)OCCN1CCOCC1)C(=O)OC2` [MYCOPHENOLATE MOFETIL], the IC50 result (at B2 bradykinin receptor; in test [1]; at Carbonic anhydrase 2; in test [2]; in [3]; on Melanocortin receptor 4) was “Not Active” each time. For the same molecule, the IC50 entry (in [4] (cho-k1); in [5]; in test [6]; at Caspase-1; in [7]; in [8]) was “Not Active” in each case. Also, the IC50 entry against Acetylcholinesterase is recorded as “Not Active”. The Ki entry in [1] and in test [6] was “Not Active” in each case.

For the molecule `COC(=O)C1=C(C)NC(C)=C(C(=O)OC)C1c1ccccc1[N+](=O)[O-]` [NIFEDIPINE], the IC50 result (against B2 bradykinin receptor; in test [1]; against Carbonic anhydrase 2; in [2]; in test [3]; on Melanocortin receptor 4) was “Not Active” in each case. Besides, the IC50 entry (in test [4] (cho-k1); in test [5]; in [6]; against Caspase-1; in test [7]; in test [8]) was “Not Active” in each case. For the same molecule, the IC50 result at Acetylcholinesterase is listed as “Not Active”. The Ki result in [1] and in test [6] was “Not Active” throughout.

Regarding `CC(=O)[C@H]1CC[C@H]2[C@@H]3CCC4=CC(=O)CC[C@]4(C)[C@H]3CC[C@]12C` [PROGESTERONE], the IC50 result (against B2 bradykinin receptor; in [1]; on Carbonic anhydrase 2; in [2]; in [3]; on Melanocortin receptor 4) was “Not Active” throughout. In addition, the IC50 entry (in test [4] (cho-k1); in test [5]; in test [6]; against Caspase-1; in test [7]; in [8]) was “Not Active” each time. The IC50 entry at Acetylcholinesterase was “Not Active”. The Ki result in test [1] and in test [6] was “Not Active” throughout.

In the case of `NC(=O)c1ncn([C@@H]2O[C@H](CO)[C@@H](O)[C@H]2O)n1` [RIBAVIRIN], the IC50 entry (on B2 bradykinin receptor; in test [1]; against Carbonic anhydrase 2; in test [2]; in test [3]; against Melanocortin receptor 4) was “Not Active” each time. Besides, the IC50 entry (in test [4] (cho-k1); in [5]; in [6]; against Caspase-1; in test [7]; in test [8]) was “Not Active” each time. Moreover, the IC50 result against Acetylcholinesterase was “Not Active”. Moreover, the Ki result in [1] and in test [6] was “Not Active” throughout.

For `CC[C@H]1OC(=O)[C@H](C)[C@@H](O[C@H]2C[C@@](C)(OC)[C@@H](O)[C@H](C)O2)[C@H](C)[C@@H](O[C@@H]2O[C@H](C)C[C@H](N(C)C)[C@H]2O)[C@](C)(O)C[C@@H](C)/C(=N\OCOCCOC)[C@H](C)[C@@H](O)[C@]1(C)O` [ROXITHROMYCIN], the IC50 entry (against B2 bradykinin receptor; in test [1]; on Carbonic anhydrase 2; in [2]; in test [3]; against Melanocortin receptor 4) was “Not Active” in each case. The IC50 entry (in test [4] (cho-k1); in test [5]; in test [6]; against Caspase-1; in test [7]; in [8]) was “Not Active” in each case. Moreover, at Acetylcholinesterase, the IC50 entry is “Not Active”. Moreover, the Ki entry in test [1] and in [6] was “Not Active” in each case.

Consider `NC(=O)c1ccccc1O` [SALICYLAMIDE], for which the IC50 entry (at B2 bradykinin receptor; in test [1]; against Carbonic anhydrase 2; in test [2]; in test [3]; on Melanocortin receptor 4) was “Not Active” each time. Also, the IC50 entry (in [4] (cho-k1); in [5]; in test [6]; against Caspase-1; in [7]; in test [8]) was “Not Active” in each case. The IC50 entry against Acetylcholinesterase was “Not Active”. The Ki result in [1] and in test [6] was “Not Active” in each case.
